Common to all, as to type: biochemical
The target in one test is T1, human GST-DYRK1A (Homo sapiens, UniProt Q13627).
T1 construct: purified human GST-DYRK1A (full length, Thermo Scientifics) enzyme; purchased Thermo Scientifics
Nature of the test: GST-DYRK1A enzyme inhibition, ADP-Glo kinase assay. As to conditions: ATP 10 μM, GST-DYRK1A full length, read-out: DYRK1 IC50. An outline of the steps: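 Full-length human GST-DYRK1A (10 ng) with 10 μM ATP and specific substrate in 40 mM Tris-HCl pH 7.4, 20 mM MgCl2, 0.5 mg/mL BSA, 50 μM DTT, 1 h at 25 °C. ADP formation read by ADP-Glo luminescence relative to solvent control; IC50 from three data sets.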

The next test addresses T2, human GST-CLK1 (Homo sapiens, UniProt P49759).
T2 construct: purified human GST-CLK1 (129-end, SignalChem) enzyme; purchased SignalChem
Nature of the test: GST-CLK1 enzyme inhibition, ADP-Glo kinase assay. The settings on record: ATP 10 μM, GST-CLK1 129-end. An outline of the steps:
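Human GST-CLK1 (129-end, 3 ng) reacted with substrate and 10 μM ATP for 1 h at 25° C in 40 mM Tris-HCl pH 7.4, 20 mM MgCl2, 0.5 mg/mL BSA, 50 μM DTT. ADP-Glo luminescence was normalised to solvent control; IC50 (nM) from 3 data sets.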

A further test addresses LRRK2 (G2019S) (Homo sapiens, UniProt Q5S007, G2019S). Nature of the test: LRRK2 G2019S enzyme inhibition, ADP-Glo kinase assay. More on the design: purchased SignalChem L10-12GG. The settings on record: ATP 25 μM. An outline of the steps: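 Purified human LRRK2 G2019S (16 ng) with 25 μM ATP and 0.2 μg substrate, 2 h at 25° C. in Tris-HCl pH 7.4, MgCl2, BSA, DTT buffer; compounds at 12 final concentrations, 50 μM down to 0.000001024 μM. ADP-Glo luminescence versus solvent control gave IC50.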

Here are results for 20 molecules from patent publication US20230066011A1, “PYRROLOPYRIMIDINE DERIVATIVE, AND PHARMACEUTICAL COMPOSITION FOR PREVENTING OR TREATING PROTEIN KINASE-RELATED DISEASE COMPRISING SAME AS ACTIVE INGREDIENT” (VORONOI CO., LTD., priority 2019, published 2023).

Chain of LRRK2 (G2019S) (Q5S007 970-2527 G2019S limits assumed): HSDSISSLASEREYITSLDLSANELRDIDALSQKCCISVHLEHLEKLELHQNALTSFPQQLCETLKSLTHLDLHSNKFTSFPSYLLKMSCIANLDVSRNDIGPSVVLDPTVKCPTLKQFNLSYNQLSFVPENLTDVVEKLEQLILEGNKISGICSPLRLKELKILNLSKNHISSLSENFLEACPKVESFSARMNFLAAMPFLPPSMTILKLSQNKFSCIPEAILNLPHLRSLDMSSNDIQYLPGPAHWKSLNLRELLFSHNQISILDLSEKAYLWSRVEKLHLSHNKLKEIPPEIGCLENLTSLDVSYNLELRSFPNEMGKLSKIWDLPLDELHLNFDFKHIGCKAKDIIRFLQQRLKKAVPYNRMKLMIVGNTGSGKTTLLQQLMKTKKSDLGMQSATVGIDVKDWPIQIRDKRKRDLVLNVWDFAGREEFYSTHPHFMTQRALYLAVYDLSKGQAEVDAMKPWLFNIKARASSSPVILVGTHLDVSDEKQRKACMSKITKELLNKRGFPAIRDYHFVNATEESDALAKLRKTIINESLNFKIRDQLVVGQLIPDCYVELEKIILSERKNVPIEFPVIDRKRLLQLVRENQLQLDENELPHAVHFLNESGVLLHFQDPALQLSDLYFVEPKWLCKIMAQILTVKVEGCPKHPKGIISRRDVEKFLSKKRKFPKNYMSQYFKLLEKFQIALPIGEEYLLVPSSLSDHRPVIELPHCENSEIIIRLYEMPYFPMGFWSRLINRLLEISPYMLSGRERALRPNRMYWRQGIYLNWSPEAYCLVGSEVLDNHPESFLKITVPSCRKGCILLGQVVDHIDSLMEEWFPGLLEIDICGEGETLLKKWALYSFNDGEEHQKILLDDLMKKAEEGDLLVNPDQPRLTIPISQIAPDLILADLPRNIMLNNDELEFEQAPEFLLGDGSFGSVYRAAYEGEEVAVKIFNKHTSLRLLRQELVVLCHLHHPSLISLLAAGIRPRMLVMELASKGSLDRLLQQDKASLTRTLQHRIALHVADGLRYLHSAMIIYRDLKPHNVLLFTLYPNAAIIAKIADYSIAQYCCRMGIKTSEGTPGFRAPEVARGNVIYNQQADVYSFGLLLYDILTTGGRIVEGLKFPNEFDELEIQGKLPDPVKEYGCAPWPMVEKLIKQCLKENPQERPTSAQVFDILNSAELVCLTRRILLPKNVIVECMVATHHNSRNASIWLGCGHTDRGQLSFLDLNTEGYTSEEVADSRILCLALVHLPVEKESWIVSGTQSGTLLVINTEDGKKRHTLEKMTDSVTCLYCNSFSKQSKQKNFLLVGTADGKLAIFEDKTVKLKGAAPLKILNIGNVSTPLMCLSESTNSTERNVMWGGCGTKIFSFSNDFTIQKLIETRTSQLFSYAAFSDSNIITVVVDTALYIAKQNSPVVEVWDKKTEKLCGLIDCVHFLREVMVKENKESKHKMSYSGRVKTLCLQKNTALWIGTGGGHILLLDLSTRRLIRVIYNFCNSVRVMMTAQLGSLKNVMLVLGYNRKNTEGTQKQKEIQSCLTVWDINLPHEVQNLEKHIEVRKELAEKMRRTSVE
T2 sequence (P49759 129-484 limits assumed): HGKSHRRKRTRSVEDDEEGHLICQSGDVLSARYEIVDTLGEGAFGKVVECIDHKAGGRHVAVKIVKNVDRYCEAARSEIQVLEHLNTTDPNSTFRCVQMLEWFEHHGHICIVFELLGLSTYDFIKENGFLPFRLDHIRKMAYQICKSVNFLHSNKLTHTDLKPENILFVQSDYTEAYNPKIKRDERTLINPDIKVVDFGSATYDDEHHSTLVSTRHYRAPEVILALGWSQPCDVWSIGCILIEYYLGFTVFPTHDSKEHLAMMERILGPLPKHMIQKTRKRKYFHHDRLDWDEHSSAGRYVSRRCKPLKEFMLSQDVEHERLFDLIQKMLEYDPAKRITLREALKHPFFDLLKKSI

`COc1cc(P2(=O)CCN(C3CC3)CC2)ccc1Nc1nc(NC2CCOCC2)c2c(C(F)(F)F)c[nH]c2n1` [Example 419, 1-cyclopropyl-4-(3-methoxy-4-((4-((tetrahydro-2H-pyran-4-yl)amino)-5-(trifluoro)-7H-pyrrolo[2,3-d]pyrimidin-2-yl)amino)phenyl)-1,4-azaphosphinane 4-oxide]: the IC50 on human GST-DYRK1A was 301 to 1000 nM; on human GST-CLK1, under 100 nM; on LRRK2 (G2019S), under 100 nM.
Turning to `COc1cc(P2(=O)CCN(C3CC3)CC2)ccc1Nc1nc(NCC2CC2)c2c(C(F)(F)F)c[nH]c2n1` [Example 421, 1-cyclopropyl-4-(4-((4-((cyclo-propylmeth-yl)amino)-5-(trifluoromethyl)-7H-pyrrolo[2,3-d]pyrimidin-2-yl)amino)-3-methoxyphenyl)-1,4-azaphosphinane 4-oxide], the IC50 at human GST-DYRK1A is 301 to 1000 nM; at human GST-CLK1 it was 301 to 1000 nM; against LRRK2 (G2019S), under 100 nM.
Regarding `COc1cc(P2(=O)CCN(C3CC3)CC2)ccc1Nc1nc(NCC2CCC2)c2c(C(F)(F)F)c[nH]c2n1` [Example 423, 4-(4-((4-((cyclobutyl-methyl)amino)-5-(trifluoromethyl)-7H-pyrrolo[2,3-d]pyrimidin-2-yl)amino)-3-methoxyphenyl)-1-cyclopropyl-1,4-aza-phosphinane 4-oxide], the 50% inhibitory concentration (IC50) on human GST-DYRK1A was 301 to 1000 nM; against human GST-CLK1, 301 to 1000 nM; against LRRK2 (G2019S) it was under 100 nM.
As to `O=C(c1ccc(Nc2nc(NCC3CCCC3)c3c(C(F)(F)F)c[nH]c3n2)c2c1OCCO2)N1CCN(C2COC2)CC1` [Example 425, (8-((4-((cyclo-pentylmeth-yl)amino)-5-(trifluoromethyl)-7H-pyrrolo[2,3-d]pyrimidin-2-yl)amino)-2,3-dihydrobenzo[b] [1,4]dioxin-5-yl) (4-(oxetan-3-yl)piperazin-1-yl)methanone], the IC50 on human GST-DYRK1A was 301 to 1000 nM; against human GST-CLK1, 301 to 1000 nM; on LRRK2 (G2019S) it was under 100 nM.
For the molecule `COc1cc(P2(=O)CCN(C3CC3)CC2)ccc1Nc1nc(NCCS(C)(=O)=O)c2c(C(F)(F)F)c[nH]c2n1` [Example 426, 1-cyclopropyl-4-(3-methoxy-4-((4-((2-(methyl-sulfonyl)eth-yl)amino)-5-(trifluoromethyl)-7H-pyrrolo[2,3-d]pyrimidin-2-yl)amino)phenyl)-1,4-azaphosphinane 4-oxide], the IC50 at human GST-DYRK1A, against human GST-CLK1 and on LRRK2 (G2019S) was under 100 nM throughout.
Regarding `CS(=O)(=O)CCNc1nc(Nc2ccc(C(=O)N3CCN(C4COC4)CC3)c3c2OCCO3)nc2[nH]cc(C(F)(F)F)c12` [Example 427, (8-((4-((2-(methylsulfonyl)ethyl)amino)-5-(trifluoromethyl)-7H-pyrrolo[2,3-d]pyrimidin-2-yl)amino)-2,3-dihydrobenzo[b] [1,4]dioxin-5-yl) (4-(oxetan-3-yl)piperazin-1-yl)methanone], the IC50 at human GST-DYRK1A, at human GST-CLK1 and against LRRK2 (G2019S) was under 100 nM throughout.
Regarding `CCCCNc1nc(Nc2ccc(P3(=O)CCN(C4CC4)CC3)cc2OC)nc2[nH]cc(C(F)(F)F)c12` [Example 428, 4-(4-((4-(butylamino)-5-(trifluoromethyl)-7H-pyrrolo[2,3-d]pyrimidin-2-yl)amino)-3-methoxyphenyl)-1-cyclopropyl-1,4-azaphosphinane 4-oxide], the IC50 is 301 to 1000 nM on human GST-DYRK1A, 301 to 1000 nM at human GST-CLK1 and under 100 nM against LRRK2 (G2019S).
Consider `CCCCNc1nc(Nc2ccc(C(=O)N3CCN(C4COC4)CC3)c3c2OCCO3)nc2[nH]cc(C(F)(F)F)c12` [Example 429, (8-((4-(butylamino)-5-(trifluoromethyl)-7H-pyrrolo[2,3-d]pyrimidin-2-yl)amino)-2,3-dihydrobenzo[b] [1,4]dioxin-5-yl) (4-(oxetan-3-yl)piperazin-1-yl)methanone], for which the concentration for half-maximal inhibition (IC50) on human GST-DYRK1A, against human GST-CLK1 and on LRRK2 (G2019S) was under 100 nM each time.
Regarding `O=C(c1ccc(Nc2nc(NC3CC3)c3c(C(F)(F)F)c[nH]c3n2)c2c1CCO2)N1CCOCC1` [Example 433, (7-((4-(cyclo-propylamino)-5-(trifluoromethyl)-7H-pyrrolo[2,3-d]pyrimidin-2-yl)amino)-2,3-dihydrobenzo-furan-4-yl) (morpholino) methanone], the IC50 was 301 to 1000 nM on human GST-DYRK1A, under 100 nM at human GST-CLK1 and under 100 nM against LRRK2 (G2019S).
As to `CC(C)CNc1nc(Nc2ccc(C(=O)N3CCOCC3)c3c2OCC3)nc2[nH]cc(C(F)(F)F)c12` [Example 447, (7-((4-(iso-butylamino)-5-(trifluoromethyl)-7H-pyrrolo[2,3-d]pyrimidin-2-yl)amino)-2,3-dihydrobenzo-furan-4-yl) (morpholino) methanone], the IC50 on human GST-DYRK1A is 301 to 1000 nM; against human GST-CLK1, 301 to 1000 nM; against LRRK2 (G2019S), under 100 nM.
`CC(C)Nc1nc(Nc2ccc(C(=O)N3CCOCC3)c3c2OCC3)nc2[nH]cc(C(F)(F)F)c12` [Example 449, (7-((4-(isopropylamino)-5-(trifluoromethyl)-7H-pyrrolo[2,3-d]pyrimidin-2-yl)amino)-2,3-dihydrobenzo-furan-4-yl) (morpholino) methanone]: the IC50 at human GST-DYRK1A is 301 to 1000 nM; against human GST-CLK1, under 100 nM; at LRRK2 (G2019S) it was under 100 nM.
In the case of `CC[C@H](C)Nc1nc(Nc2ccc(C(=O)N3CCOCC3)c3c2OCC3)nc2[nH]cc(C(F)(F)F)c12` [Example 451, (S)-(7-((4-(sec-butylamino)-5-(trifluoromethyl)-7H-pyrrolo[2,3-d]pyrimidin-2-yl)amino)-2,3-dihydrobenzo-furan-4-yl) (morpholino) methanone], the 50% inhibitory concentration (IC50) at human GST-DYRK1A is 301 to 1000 nM; against human GST-CLK1, 301 to 1000 nM; against LRRK2 (G2019S), under 100 nM.
For the molecule `O=C(c1ccc(Nc2nc(NC3CCCC3)c3c(C(F)(F)F)c[nH]c3n2)c2c1CCO2)N1CCOCC1` [Example 453, (7-((4-(cyclo-pentylamino)-5-(trifluoromethyl)-7H-pyrrolo[2,3-d]pyrimidin-2-yl)amino)-2,3-dihydrobenzo-furan-4-yl) (morpholino) methanone], the IC50 was 301 to 1000 nM at human GST-DYRK1A, 301 to 1000 nM against human GST-CLK1 and under 100 nM at LRRK2 (G2019S).
`O=C(c1ccc(Nc2nc(NC3CCCCC3)c3c(C(F)(F)F)c[nH]c3n2)c2c1CCO2)N1CCOCC1` [Example 454, (7-((4-(cyclo-hexylamino)-5-(trifluoromethyl)-7H-pyrrolo[2,3-d]pyrimidin-2-yl)amino)-2,3-dihydrobenzo-furan-4-yl) (morpholino) methanone]: the IC50 on human GST-DYRK1A is 301 to 1000 nM; against human GST-CLK1, 301 to 1000 nM; at LRRK2 (G2019S) it was under 100 nM.
On to `O=C(c1ccc(Nc2nc(N[C@H]3CCOC3)c3c(C(F)(F)F)c[nH]c3n2)c2c1CCO2)N1CCOCC1` [Example 455], for which the IC50 at human GST-DYRK1A, against human GST-CLK1 and on LRRK2 (G2019S) was under 100 nM throughout.
As to `O=C(c1ccc(Nc2nc(NC3CCOCC3)c3c(C(F)(F)F)c[nH]c3n2)c2c1CCO2)N1CCOCC1` [Example 456, morpholino(7-((4-((tetrahydro-2H-pyran-4-yl)amino)-5-(trifluoromethyl)-7H-pyrrolo[2,3-d]pyrimidin-2-yl)amino)-2,3-dihydrobenzo-furan-4-yl)methanone], the IC50 is 301 to 1000 nM on human GST-DYRK1A, under 100 nM against human GST-CLK1 and under 100 nM on LRRK2 (G2019S).
In the case of `O=C(c1ccc(Nc2nc(NCC3CC3)c3c(C(F)(F)F)c[nH]c3n2)c2c1CCO2)N1CCOCC1` [Example 457, (7-((4-((cyclo-propylmeth-yl)amino)-5-(trifluoromethyl)-7H-pyrrolo[2,3-d]pyrimidin-2-yl)amino)-2,3-dihydrobenzo-furan-4-yl) (morpholino) methanone], the IC50 on human GST-DYRK1A was 301 to 1000 nM; on human GST-CLK1, under 100 nM; at LRRK2 (G2019S) it was under 100 nM.
`O=C(c1ccc(Nc2nc(NCC3CCC3)c3c(C(F)(F)F)c[nH]c3n2)c2c1CCO2)N1CCOCC1` [Example 458, (7-((4-((cyclo-butylmethyl)amino)-5-(trifluoromethyl)-7H-pyrrolo[2,3-d]pyrimidin-2-yl)amino)-2,3-dihydrobenzo-furan-4-yl) (morpholino) methanone]: the values for the 50% inhibitory concentration (IC50) on human GST-DYRK1A, against human GST-CLK1 and against LRRK2 (G2019S) were 301 to 1000 nM, 301 to 1000 nM and under 100 nM, respectively.
As to `O=C(c1ccc(Nc2nc(NC3CCCC3)c3c(C(F)(F)F)c[nH]c3n2)c2c1CCO2)N1CCC(N2CCOCC2)CC1` [Example 459, (7-((4-(cyclo-pentylamino)-5-(trifluoromethyl)-7H-pyrrolo[2,3-d]pyrimidin-2-yl)amino)-2,3-dihydrobenzo-furan-4-yl)(4-morpho-linopiperidin-1-yl)methanone], the IC50 was 301 to 1000 nM on human GST-DYRK1A, 301 to 1000 nM on human GST-CLK1 and under 100 nM on LRRK2 (G2019S).
With `O=C(c1ccc(Nc2nc(NCC3CCCC3)c3c(C(F)(F)F)c[nH]c3n2)c2c1CCO2)N1CCOCC1` [Example 463, (7-((4-((cyclo-pentylmeth-yl)amino)-5-(trifluoromethyl)-7H-pyrrolo[2,3-d]pyrimidin-2-yl)amino)-2,3-dihydrobenzo-furan-4-yl) (morpholino) methanone], the IC50 at human GST-DYRK1A, against human GST-CLK1 and against LRRK2 (G2019S) was 301 to 1000 nM each time.
